Results on 1 compound are retold here after patent publication US20060034848A1, “Methods and compositions for treating Alzheimer's disease” (priority 2003, published 2006).

The test system of this test is LRP-CTF. Put plainly: LRP C-terminal fragment (CTF) western after DAPT treatment. The conditions noted are these: N2a cells cotransfected with LC-myc and empty vector, BACE or catalytically inactive BACE; DAPT treatment for 12 h vs vehicle. The test is classed as cell-based, mouse. The method, then: FIG. 11 depicts a LRP CTF western. […] Shown is the intensity of a representative blot out four experiments without DAPT treatment and two with DAPT treatment.
The proteins were transferred to immobilon-P membrane (Millipore, Bedford, Mass.). Staining was performed according to Licor odyssey instructions and LRP light chain was detected by rabbit anti-myc Ab with 680 gt anti rabbit secondary and visualized on the Licor odyssey.
After cotransfection of LRP with BACE we saw an increase of LRP-CTF as well as in non-treated cells and even more after DAPT treatment.

Each structure is given as a SMILES string. “Also recorded” adds a separate entry of the source.

As to `C[C@H](NC(=O)Cc1cc(F)cc(F)c1)C(=O)N[C@H](C(=O)OC(C)(C)C)c1ccccc1` [DAPT], the “LRP-CTF 25 kDa band intensity (western blot)” value is recorded as “increase of the LRP-CTF 25 kDa band; also recorded: increase of CTF intensity”.
